Tested on: Influenza virus
Assay: organism not typed
Type: cell-based, influenza A virus
Settings: for Avg PFU/ml: average of first and second experiment; for Influenza virus titer, 10 μM / Influenza virus titer, 50 μM: upper part of table (FIG. 5 data); for Influenza virus titer, 10 μM / Influenza virus titer, 50 μM / Flu titer (pfu/ml): plaque assay; for Avg: 1-24-20

SMILES | first experiment (10 μM screen) | second experiment (10 μM screen) | Avg PFU/ml (10 μM screen) | Influenza virus titer, 10 μM (10 μM) | first experiment PFU/ml (50 μM screen) | second experiment PFU/ml (50 μM screen) | Avg PFU/ml (50 μM screen) | Influenza virus titer, 50 μM | Flu titer (pfu/ml) (1 μM compound, A549 cells) | Flu titer (pfu/ml) (10 μM compound, A549 cells) | Flu titer (pfu/ml) (50 μM compound, A549 cells) | other results
COc1ccc(CNC2CCCCC2)c(OCC(O)CN2CCN(C)CC2)c1 (centres unmarked) [Compound 18-10] | 40000 PFU/ml | 2600 PFU/ml | 21300 PFU/ml | 40000 PFU/virus/ml | 16000 PFU/ml | 1900 PFU/ml | 8950 PFU/ml | 16000 PFU/virus/ml |  |  |  | 
COc1ccc(OC)c(Cc2nnc(CCC(=O)NC3CC(C)(C)CC(C)(C)C3)o2)c1 [Compound 35434810, 3-[5-(2,5-dimethoxybenzyl)-1,3,4-oxadiazol-2-yl]-N-(3,3,5,5-tetramethylcyclohexyl)propanamide] |  |  |  |  |  |  |  |  | 80000 pfu/ml | 80000 pfu/ml | 130000 pfu/ml | 
COc1ccc(CNCCc2ccccc2)c(OCC(O)CN2CCN(C)CC2)c1 (centres unmarked) [Compound 18-6] | 10000 PFU/ml | 500 PFU/ml | 5250 PFU/ml | 10000 PFU/virus/ml | 1300 PFU/ml | 300 PFU/ml | 800 PFU/ml | 1300 PFU/virus/ml |  |  |  | 
COCCCNCc1ccc(OC)cc1OCC(O)CN1CCN(C)CC1 (centres unmarked) [Compound 18-11] | 100000 PFU/ml | 39000 PFU/ml | 69500 PFU/ml | 100000 PFU/virus/ml | 160000 PFU/ml | 31000 PFU/ml | 95500 PFU/ml | 160000 PFU/virus/ml |  |  |  | 
COc1ccc(CNC2CCCCCCC2)c(OCC(O)CN2CCN(C)CC2)c1 (centres unmarked) [Compound 18-8] | 3000 PFU/ml | 700 PFU/ml | 1850 PFU/ml | 3000 PFU/virus/ml | 3800 PFU/ml | 200 PFU/ml | 2000 PFU/ml | 38000 PFU/virus/ml |  |  |  | 
CCN1CCN(CC(O)COc2cccc(CN(C)Cc3cc(C)no3)c2)CC1 (centres unmarked) [Compound 77921510, 1-(4-ethyl-1-piperazinyl)-3-[3-({methyl[(3-methyl-5-isoxazolyl)methyl]amino}methyl)phenoxy]-2-propanol] |  |  |  |  |  |  |  |  | 72000 pfu/ml | 90000 pfu/ml | 26000 pfu/ml | 
COc1cc(CNCCC2CCN(C)CC2)ccc1OCC(O)CN(C)C1CCCCC1 (centres unmarked) [Compound 28236358, 1-[cyclohexyl(methyl)amino]-3-[2-methoxy-4-({[2-(1-methyl-4-piperidinyl)ethyl]amino}methyl)phenoxy]-2-propanol] |  |  |  |  |  |  |  |  | 70000 pfu/ml | 70000 pfu/ml | 39000 pfu/ml | 
COc1ccc(CNCCc2ccccc2C)c(OCC(O)CN2CCN(C)CC2)c1 (centres unmarked) [Compound 18-2] | 500 PFU/ml | 1900 PFU/ml | 1200 PFU/ml | 500 PFU/virus/ml | 1700 PFU/ml | 100 PFU/ml | 900 PFU/ml | 1700 PFU/virus/ml |  |  |  | 
CCN1CCN(CC(O)COc2cccc(CN(C)Cc3ccccn3)c2)CC1 (centres unmarked) [Compound 10306628, 1-(4-ethyl-1-piperazinyl)-3-(3-{[methyl(2-pyridinylmethyl)amino]methyl}phenoxy)-2-propanol] |  |  |  |  |  |  |  |  | 70000 pfu/ml | 85000 pfu/ml | 42000 pfu/ml | 
Cc1ccc(-c2cc3c(c(OCC4CCCCO4)c2)OCCN(C(=O)C2CC2)C3)s1 (centres unmarked) [Compound 43261887, 4-(cyclopropylcarbonyl)-7-(5-methyl-2-thienyl)-9-(tetrahydro-2H-pyran-2-ylmethoxy)-2,3,4,5-tetrahydro-1,4-benzoxazepine] |  |  |  |  |  |  |  |  | 60000 pfu/ml | 170000 pfu/ml | 30000 pfu/ml | 
COc1ccc(CNCCCSC)c(OCC(O)CN2CCCCCCC2)c1 (centres unmarked) [Compound 18-14] | 44000 PFU/ml | 12000 PFU/ml | 28000 PFU/ml | 4400 PFU/virus/ml | 80000 PFU/ml | 1100 PFU/ml | 40550 PFU/ml | 80000 PFU/virus/ml |  |  |  | 
COc1ccc(CNCC(F)(F)F)c(OCC(O)CN2CCN(C)CC2)c1 (centres unmarked) [Compound 18-12] | 30000 PFU/ml | 28000 PFU/ml | 29000 PFU/ml | 30000 PFU/virus/ml | 90000 PFU/ml | 26000 PFU/ml | 58000 PFU/ml | 90000 PFU/virus/ml |  |  |  | 
COc1ccc(CNCCc2ccccc2F)c(OCC(O)CN2CCN(C)CC2)c1 (centres unmarked) [UMBCADD-0018, 1-[2-({[2-(2-fluorophenyl)ethyl]amino}methyl)-5-methoxyphenoxy]-3-(4-methyl-1-piperazinyl)-2-propanol] |  |  |  |  |  |  |  |  |  |  |  | inhibition of Influenza virus replication (10 μM, A549 cells): over 20 fold; antiviral activity against IAV infection (screening, A549 cells): effective at 50 μM, 10 μM and 1 μM
CCN(CC)CCNCc1ccccc1OCC(O)CN1CCSCC1 (centres unmarked) [Compound 86006211, 1-[2-({[2-(diethylamino)ethyl]amino}methyl)phenoxy]-3-(4-thiomorpholinyl)-2-propanol] |  |  |  |  |  |  |  |  | 70000 pfu/ml | 60000 pfu/ml | 12000 pfu/ml | 
COc1ccc(NC(=O)c2ccccc2OCC(=O)NC2CCCCC2)c([N+](=O)[O-])c1 [Compound 7900806, 2-[2-(cyclohexylamino)-2-oxoethoxy]-N-(4-methoxy-2-nitrophenyl)benzamide] |  |  |  |  |  |  |  |  | 77000 pfu/ml | 60000 pfu/ml | 54000 pfu/ml | 
CC#CC(=O)NCc1nc(-c2ccccc2NC(=O)CCOc2ccccc2)oc1C [Compound 17295424, N-[(5-methyl-2-{2-[(3-phenoxypropanoyl)amino]phenyl}-1,3-oxazol-4-yl)methyl]-2-butynamide] |  |  |  |  |  |  |  |  | 44000 pfu/ml | 68000 pfu/ml | 64000 pfu/ml | 
COc1ccc(CNCCc2ccccc2F)c(OCC(O)CN2CCN(C)CC2)c1 (centres unmarked) [Compound 96509034, 1-[2-({[2-(2-fluorophenyl)ethyl]amino}methyl)-5-methoxyphenoxy]-3-(4-methyl-1-piperazinyl)-2-propanol] |  |  |  |  |  |  |  |  | 10000 pfu/ml | 4000 pfu/ml | 5000 pfu/ml | 
COc1ccc(CNCCCn2ccnc2C)c(OCC(O)CN2CCN(C)CC2)c1 (centres unmarked) [Compound 18-7] | 240000 PFU/ml | 44000 PFU/ml | 142000 PFU/ml | 240000 PFU/virus/ml | 110000 PFU/ml | 31000 PFU/ml | 70500 PFU/ml | 110000 PFU/virus/ml |  |  |  | 
COc1ccc(CNCCc2ccccc2F)c(OCC(O)CN2CCN(C)CC2)c1 (centres unmarked) [Compound 18-lead, 1-[2-({[2-(2-fluorophenyl)ethyl]amino}methyl)-5-methoxyphenoxy]-3-(4-methyl-1-piperazinyl)-2-propanol] |  |  |  | 2000 PFU/virus/ml |  |  |  | 1400 PFU/virus/ml |  |  |  | 
COc1ccc(CNCCc2ccccc2F)c(OCC(O)CN2CCN(C)CC2)c1 (centres unmarked) [Compound 18, 1-[2-({[2-(2-fluorophenyl)ethyl]amino}methyl)-5-methoxyphenoxy]-3-(4-methyl-1-piperazinyl)-2-propanol] | 2000 PFU/ml | 1100 PFU/ml | 1550 PFU/ml |  | 1400 PFU/ml | 300 PFU/ml | 850 PFU/ml |  |  |  |  | Avg (10 μM screen): 1150 PFU/ml; Avg (50 μM screen): 400 PFU/ml
OCCN(Cc1nc(Cc2cccc(C(F)(F)F)c2)no1)CC12CC3CC(CC(C3)C1)C2 [Compound 61121342, 2-[(1-adamantylmethyl)({3-[3-(trifluoromethyl)benzyl]-1,2,4-oxadiazol-5-yl}methyl)amino]ethanol] |  |  |  |  |  |  |  |  | 9000 pfu/ml | 130000 pfu/ml | 50000 pfu/ml | 
COc1ccc(CNC2CCCC2)c(OCC(O)CN2CCN(C)CC2)c1 (centres unmarked) [Compound 18-1] | 60000 PFU/ml | 19000 PFU/ml | 39500 PFU/ml | 60000 PFU/virus/ml | 2200 PFU/ml | 1400 PFU/ml | 1800 PFU/ml | 2200 PFU/virus/ml |  |  |  | 
COc1ccc(CNCCCSC)c(OCC(O)CN2CCN(C)CC2)c1 (centres unmarked) [Compound 18-16] | 210000 PFU/ml | 18000 PFU/ml | 114000 PFU/ml | 21000 PFU/virus/ml | 30000 PFU/ml | 2300 PFU/ml | 16150 PFU/ml | 90000 PFU/virus/ml |  |  |  | 
CCc1ccc(OC(C)c2nnc(SCC(=O)Nc3nc(-c4ccccc4)c(C)s3)n2C)cc1 (centres unmarked) [Compound 7493781, 2-({5-[1-(4-ethylphenoxy)ethyl]-4-methyl-4H-1,2,4-triazol-3-yl}thio)-N-(5-methyl-4-phenyl-1,3-thiazol-2-yl)acetamide] |  |  |  |  |  |  |  |  | 75000 pfu/ml | 98000 pfu/ml | 53000 pfu/ml | 

Reference: US20240132484A1, “BROAD SPECTRUM ANTIVIRAL COMPOUNDS TARGETING THE SKI COMPLEX” (priority 2020, published 2024)
